According to PubChem BioAssay AID248 (DTP/NCI, 2004):
Several values for one entry are separate records, joined by “and”; a condition that tells them apart may be missing. Identical values can stand only once. Toxic doses and inconclusive results are not listed.

System: L1210 leukemia ip in BDF1 mice, survival T/C
Experiment: NCI In Vivo Anticancer Drug Screen. Data for tumor model L1210 Leukemia (intraperitoneal) in B6D2F1 (BDF1) mice
Settings: endpoint: mean survival time, higher = longer survival
How it was run: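 Mice bearing the transplanted tumor received compound or vehicle. Survival of the treated group was divided by that of the vehicle-treated control group to give the ratio.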

Compound: O=NN(CCCl)C(=O)N[C@H]1CCCC[C@@H]1Cl
- T/C (dose: 3.0 mg/kg/injection, schedule: Q## X024 (ip), vehicle: other): 103 % of control
- T/C (dose: 3.0 mg/kg/injection, schedule: Q## X024 (oral), vehicle: other): 114 % of control
- T/C (dose: 3.35 mg/kg/injection, schedule: Q01DX015 (ip), vehicle: other): 116 % of control
- T/C (dose: 5.0 mg/kg/injection, schedule: Q01DX015 (ip), vehicle: other): 173 % of control
- T/C (dose: 6.0 mg/kg/injection, schedule: Q01DX001 (oral), vehicle: other): 116 % of control
- T/C (dose: 6.0 mg/kg/injection, schedule: Q01DX001 (sc), vehicle: other): 123 % of control
- T/C (dose: 6.0 mg/kg/injection, schedule: Q## X008 (oral), vehicle: other): 122 % of control
- T/C (dose: 6.7 mg/kg/injection, schedule: Q02DX008 (ip), vehicle: other): 162 % of control and 208 % of control
- T/C (dose: 7.6 mg/kg/injection, schedule: Q01DX015 (ip), vehicle: other): 277 % of control
- T/C (dose: 7.62 mg/kg/injection, schedule: Q01DX015 (ip), vehicle: other): 485 % of control
- T/C (dose: 8.0 mg/kg/injection, schedule: Q01DX001 (ip), vehicle: carboxymethylcellulose (CMC)): 119 % of control
- T/C (dose: 10.2 mg/kg/injection, schedule: Q02DX008 (ip), vehicle: other): 242 % of control and 558 % of control
- T/C (dose: 11.4 mg/kg/injection, schedule: Q01DX015 (ip), vehicle: other): 348 % of control and 478 % of control
- T/C (dose: 12.0 mg/kg/injection, schedule: Q01DX001 (ip), vehicle: other): 203 % of control
- T/C (dose: 12.0 mg/kg/injection, schedule: Q## X008 (oral), vehicle: other): 117 % of control
- T/C (dose: 13.4 mg/kg/injection, schedule: Q## X004 (ip), vehicle: other): 291 % of control and 500 % of control
- T/C (dose: 13.75 mg/kg/injection, schedule: Q01DX001 (oral), vehicle: other): 150 % of control and 164 % of control
- T/C (dose: 13.75 mg/kg/injection, schedule: Q## X001 (oral), vehicle: other): 200 % of control
- T/C (dose: 15.0 mg/kg/injection, schedule: Q01DX001 (ip), vehicle: other): 187 % of control
- T/C (dose: 15.0 mg/kg/injection, schedule: Q01DX005 (ip), vehicle: other): 476 % of control
- T/C (dose: 15.0 mg/kg/injection, schedule: Q01DX009 (ip), vehicle: other): 408 % of control
- T/C (dose: 15.0 mg/kg/injection, schedule: Q01DX009 (sc), vehicle: other): 365 % of control
- T/C (dose: 15.0 mg/kg/injection, schedule: Q## X003 (ip), vehicle: other): 476 % of control
- T/C (dose: 15.24 mg/kg/injection, schedule: Q02DX008 (ip), vehicle: other): 501 % of control
- T/C (dose: 15.25 mg/kg/injection, schedule: Q01DX001 (ip), vehicle: other): 323 % of control
- T/C (dose: 15.25 mg/kg/injection, schedule: Q## X001 (ip), vehicle: other): 156 % of control
- T/C (dose: 16.0 mg/kg/injection, schedule: Q## X032 (ip), vehicle: other): 209 % of control
- T/C (dose: 17.0 mg/kg/injection, schedule: Q01DX015 (ip), vehicle: other): 330 % of control and 527 % of control
- T/C (dose: 18.0 mg/kg/injection, schedule: Q01DX001 (ip), vehicle: carboxymethylcellulose (CMC)): 183 % of control
- T/C (dose: 19.0 mg/kg/injection, schedule: Q01DX001 (ip), vehicle: carboxymethylcellulose (CMC)): 160 % of control
- T/C (dose: 20.4 mg/kg/injection, schedule: Q## X004 (ip), vehicle: other): 590 % of control
- T/C (dose: 22.8 mg/kg/injection, schedule: Q02DX008 (ip), vehicle: other): 433 % of control and 545 % of control
- T/C (dose: 24.0 mg/kg/injection, schedule: Q01DX001 (ip), vehicle: other): 476 % of control
- T/C (dose: 24.0 mg/kg/injection, schedule: Q01DX001 (oral), vehicle: other): 275 % of control
- T/C (dose: 24.0 mg/kg/injection, schedule: Q01DX001 (sc), vehicle: other): 267 % of control
- T/C (dose: 24.0 mg/kg/injection, schedule: Q## X008 (oral), vehicle: other): 165 % of control
- T/C (dose: 24.0 mg/kg/injection, schedule: Q## X024 (oral), vehicle: other): 270 % of control
- T/C (dose: 24.0 mg/kg/injection, schedule: Q## X032 (ip), vehicle: other): 470 % of control
- T/C (dose: 26.0 mg/kg/injection, schedule: Q01DX001 (ip), vehicle: carboxymethylcellulose (CMC)): 209 % of control and 243 % of control
- T/C (dose: 27.0 mg/kg/injection, schedule: Q01DX001 (ip), vehicle: other): 409 % of control
- T/C (dose: 27.5 mg/kg/injection, schedule: Q01DX001 (oral), vehicle: other): 263 % of control and 297 % of control
- T/C (dose: 27.5 mg/kg/injection, schedule: Q## X001 (oral), vehicle: other): 438 % of control
- T/C (dose: 28.0 mg/kg/injection, schedule: Q## X001 (oral), vehicle: other): 340 % of control
- T/C (dose: 30.0 mg/kg/injection, schedule: Q01DX005 (ip), vehicle: other): 203 % of control
- T/C (dose: 30.0 mg/kg/injection, schedule: Q01DX005 (oral), vehicle: other): 255 % of control
- T/C (dose: 30.0 mg/kg/injection, schedule: Q01DX009 (ip), vehicle: other): 121 % of control
- T/C (dose: 30.0 mg/kg/injection, schedule: Q01DX009 (sc), vehicle: other): 200 % of control
- T/C (dose: 30.0 mg/kg/injection, schedule: Q## X003 (ip), vehicle: other): 357 % of control
- T/C (dose: 30.0 mg/kg/injection, schedule: Q## X003 (oral), vehicle: other): 452 % of control
- T/C (dose: 30.5 mg/kg/injection, schedule: Q01DX001 (ip), vehicle: carboxymethylcellulose (CMC)): 303 % of control
- T/C (dose: 30.5 mg/kg/injection, schedule: Q01DX001 (ip), vehicle: other): 186 % of control and 230 % of control
- T/C (dose: 30.5 mg/kg/injection, schedule: Q## X001 (ip), vehicle: other): 205 % of control
- T/C (dose: 30.5 mg/kg/injection, schedule: Q## X004 (ip), vehicle: other): 525 % of control
- T/C (dose: 34.0 mg/kg/injection, schedule: Q02DX008 (ip), vehicle: other): 285 % of control and 398 % of control
- T/C (dose: 36.0 mg/kg/injection, schedule: Q01DX001 (ip), vehicle: carboxymethylcellulose (CMC)): 259 % of control
- T/C (dose: 40.0 mg/kg/injection, schedule: Q01DX001 (ip), vehicle: carboxymethylcellulose (CMC)): 235 % of control and 238 % of control
- T/C (dose: 41.0 mg/kg/injection, schedule: Q01DX001 (ip), vehicle: other): 590 % of control
- T/C (dose: 41.0 mg/kg/injection, schedule: Q## X001 (oral), vehicle: other): 403 % of control
- T/C (dose: 45.6 mg/kg/injection, schedule: Q## X004 (ip), vehicle: other): 289 % of control and 481 % of control
- T/C (dose: 46.0 mg/kg/injection, schedule: Q01DX001 (ip), vehicle: carboxymethylcellulose (CMC)): 329 % of control
- T/C (dose: 48.0 mg/kg/injection, schedule: Q01DX001 (ip), vehicle: other): 384 % of control
- T/C (dose: 48.0 mg/kg/injection, schedule: Q01DX001 (oral), vehicle: other): 476 % of control
- T/C (dose: 48.0 mg/kg/injection, schedule: Q01DX001 (sc), vehicle: other): 382 % of control
- T/C (dose: 48.0 mg/kg/injection, schedule: Q## X008 (oral), vehicle: other): 471 % of control
- T/C (dose: 48.0 mg/kg/injection, schedule: Q## X024 (oral), vehicle: other): 448 % of control
- T/C (dose: 54.4 mg/kg/injection, schedule: Q## X032 (ip), vehicle: other): 377 % of control
- T/C (dose: 55.0 mg/kg/injection, schedule: Q01DX001 (oral), vehicle: other): 174 % of control and 245 % of control
- T/C (dose: 55.0 mg/kg/injection, schedule: Q## X001 (oral), vehicle: other): 204 % of control
- T/C (dose: 60.0 mg/kg/injection, schedule: Q01DX001 (ip), vehicle: carboxymethylcellulose (CMC)): 296 % of control and 304 % of control and 329 % of control
- T/C (dose: 60.0 mg/kg/injection, schedule: Q01DX009 (sc), vehicle: other): 95 % of control
- T/C (dose: 60.0 mg/kg/injection, schedule: Q## X003 (ip), vehicle: other): 105 % of control
- T/C (dose: 61.0 mg/kg/injection, schedule: Q01DX001 (ip), vehicle: carboxymethylcellulose (CMC)): 329 % of control
- T/C (dose: 61.0 mg/kg/injection, schedule: Q## X001 (ip), vehicle: other): 320 % of control and 527 % of control
- T/C (dose: 68.0 mg/kg/injection, schedule: Q## X004 (ip), vehicle: other): 180 % of control and 221 % of control
- T/C (dose: 91.5 mg/kg/injection, schedule: Q01DX001 (ip), vehicle: carboxymethylcellulose (CMC)): 164 % of control
- T/C (dose: 91.5 mg/kg/injection, schedule: Q01DX001 (ip), vehicle: other): 237 % of control and 491 % of control
- T/C (dose: 93.0 mg/kg/injection, schedule: Q01DX001 (ip), vehicle: carboxymethylcellulose (CMC)): 108 % of control
- T/C (dose: 96.0 mg/kg/injection, schedule: Q01DX001 (ip), vehicle: other): 96 % of control
- T/C (dose: 96.0 mg/kg/injection, schedule: Q01DX001 (sc), vehicle: other): 420 % of control
- T/C (dose: 96.0 mg/kg/injection, schedule: Q## X008 (oral), vehicle: other): 225 % of control
- T/C (dose: 120.0 mg/kg/injection, schedule: Q## X003 (oral), vehicle: other): 102 % of control

Compound: CC(=O)Nc1c(Br)cc2c(c1Br)C(=O)c1ccccc1-2
- T/C (dose: 100.0 mg/kg/injection, schedule: Q01DX001 (ip), vehicle: carboxymethylcellulose (CMC)): 97 % of control
- T/C (dose: 200.0 mg/kg/injection, schedule: Q01DX001 (ip), vehicle: carboxymethylcellulose (CMC)): 87 % of control
- T/C (dose: 400.0 mg/kg/injection, schedule: Q01DX001 (ip), vehicle: carboxymethylcellulose (CMC)): 97 % of control
